Source: patent publication US7785607B2 (priority 2004, dated 2010)
Read-outs that look alike come from different tables or passages of the source.

Tested on: IFN-gamma-producing T lymphocytes (PBMC)
Type: cell-based, human
Conditions: for SFCs/2.5 × 10^5 cells: μg/mL: proteins 2 each, ESAT-6 pool 50, CFP-10 pool 8, both pools 58, PHA 1, PPD 10

How did the “Absolute value (spots in control wells subtracted)” value (“Absolute value” for short) turn out when phytohemagglutinin [PHA] was run?
The value was 237.

What about the “response scored positive or negative” value of the same substance?
The value was “positive”.

And the “SFCs/2.5 × 10^5 cells” value ([…], mean of duplicate wells)?
Its value is 240 SFCs/2.5 × 10^5 cells.

What about the “Absolute value” value (sample 1b latent tuberculosis) of the same substance?
The value was 236.

What about the “SFCs/2.5 × 10^5 cells” value (sample 1b latent tuberculosis, mean of duplicate wells) of the same substance?
The value was 240 SFCs/2.5 × 10^5 cells.

And the “response scored positive or negative” value (sample 1e anergic subject)?
The value was “negative”.

What about the “Absolute value” value (sample 1e anergy) of the same substance?
Its value is 6.

What about the “SFCs/2.5 × 10^5 cells” value (sample 1e anergy) of the same substance?
Its value is 11 SFCs/2.5 × 10^5 cells.

And the “response scored positive or negative” value (sample 1d healthy control)?
Its value is “positive”.
